ChEMBL document CHEMBL1201862, “PubChem BioAssay data set” (2004)
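Each compound was tested at five concentrations against cells in 96-well plates for 48 hours. GI50 marks 50% less growth.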 Active and inactive are the calls of the source. Cut-off read from the data, not from the text of the source: active = GI50 up to about 1.1 µM and inactive = higher.

These molecules were tested on BT-549 (assay: NCI anticancer screen, dose series, 48 h).
CCn1c(=O)c2c3ccc(OC)cc3[nH]c2c2ccc(OC)cc21 was tested, and the GI50 was 79.4 µM (inactive). For Cc1ccc(S(=O)(=O)N/N=C2/CCC3(O)CC2(C)CCC2[C@H]3CC2(C)C)cc1 (some centres not stated), the GI50 was 32.1 µM (inactive). In the case of CN(/N=C/c1ccc(Cl)cc1)C1=NCCCCN1, the GI50 was > 100 µM (inactive). For C[C@H](CCC1=NCCN1)[C@H]1CC[C@H]2[C@@H]3CC[C@@H]4C[C@H](O)CC[C@]4(C)[C@H]3C[C@H](O)[C@]12C, the GI50 was 18.2 µM (inactive). For Cc1ccc2c3c(cnc2n1)C(=O)OCCN3C, the GI50 was > 100 µM (inactive). For O=C(CC1C=CCS1(=O)=O)NCc1ccccc1 (configuration not stated), the GI50 was > 100 µM (inactive). With CC1(C)CC[C@]2(C)[C@@H](O)C[C@]3(C)C(=CC[C@@H]4[C@@]5(C)CC[C@H](O)C(C)(C)[C@@H]5CC[C@]43C)[C@@H]2C1 the GI50 was 93.1 µM (inactive). With C[N+](C)([O-])C12CC3CC(CC(C3)C1)C2 the GI50 was 34 µM (inactive). Cc1ccc(Nc2nc(=O)c3c4ccccc4n(C(=O)OC(C)(C)C)c3s2)cc1 was tested, and the GI50 was 26.6 µM (inactive). For CC(=O)Nc1[nH]c(C#N)nc1C#N, the GI50 was > 100 µM (inactive). COc1cc(S(=O)(=O)Nc2ccc(-c3csc(N4C(=O)CSC4c4cccs4)n3)cc2)ccc1Cl (configuration not stated) was tested, and the GI50 was 23.6 µM (inactive). Cc1nc2ccc(F)cc2c2c1CCS2 was tested, and the GI50 was 54.8 µM (inactive). In the case of CCOC(=O)c1nc2ccc(C(F)(F)F)cc2nc1Nc1cc(OC)c(OC)c(OC)c1, the GI50 was > 100 µM (inactive). With COc1cc(C2CC(C)(O)Oc3cc4c(cc32)OCO4)cc(OC)c1OC (configuration not stated) the GI50 was 0.583 µM (active). For O=C(O)c1ccccc1/N=N/c1c(O)c(S(=O)(=O)O)cc2cc(S(=O)(=O)O)ccc12, the GI50 was > 100 µM (inactive). In the case of COc1ccccc1/C=C/c1ccnc2ccccc12, the GI50 was 10.9 µM (inactive). With Cc1ccc(S(=O)(=O)/N=C(\NN)Nc2ccc(Cl)cc2)cc1 the GI50 was > 100 µM (inactive). For O=C(O)CN1CCN2CCCCCN(CC1)CCN(CC(=O)O)CC2, the GI50 was > 100 µM (inactive). For O=C(O)C/C=C/CC(=O)O, the GI50 was > 100 µM (inactive). In the case of Cc1cc2[nH]c3c(C#N)c(-c4ccccc4)c(/N=N/c4cccc(C(F)(F)F)c4)c(=O)n3c2cc1C, the GI50 was 44.2 µM (inactive). In the case of CCOP(=O)(OCC)C(C)(CC)NC (configuration not stated), the GI50 was > 100 µM (inactive). CC(C)C[C@H](NC(=O)[C@H](Cc1cccc2ccccc12)NS(=O)(=O)c1cccc2cccnc12)B(O)O was tested, and the GI50 was < 0.0306 µM (active). With CCC1(CC)C(=O)NN(C(=O)c2ccc(Cl)cc2)C1=O the GI50 was > 100 µM (inactive). With NC(=S)NNCC(=O)CC(O)(C(F)(F)F)C(F)(F)Cl (configuration not stated) the GI50 was > 100 µM (inactive). CC(C)C(Br)CC/C(CBr)=C(\Cl)CCl (configuration not stated) was tested, and the GI50 was 1.78 µM (inactive). With CC(=O)O[C@H]1C(=O)[C@@]2(C)[C@H]([C@H](OC(=O)c3ccccc3)[C@]3(O)C[C@H](OC(=O)[C@H](O)[C@@H](NC(=O)c4ccc(N(C)C)cc4)c4ccccc4)C(C)=C1C3(C)C)[C@]1(OC(C)=O)CO[C@@H]1C[C@@H]2O the GI50 was 0.0188 µM (active). In the case of O=C1c2ccccc2-c2c1c(-c1ccc(O)cc1O)nc1ccc3ccccc3c21, the GI50 was > 100 µM (inactive). CC(=O)c1ccccc1NCC(=O)Nn1cnc2ccc(S(=O)(=O)Nc3ccccc3C(C)=O)cc2c1=O was tested, and the GI50 was > 100 µM (inactive). For CC(C)=CCC/C(C)=C/CC/C(C)=C/CC/C(C=O)=C/CC/C(C)=C\CC/C(C)=C/CC/C(C)=C/CC/C(C)=C/CC1=CC(=O)C=CC1=O, the GI50 was > 100 µM (inactive). For CC1=C2C(=O)OCC23C=COC3(C)O1 (configuration not stated), the GI50 was 44.4 µM (inactive). In the case of COc1c(O)c(OC)c2oc(-c3ccc(O)c(O)c3)c(OC)c(=O)c2c1O, the GI50 was 6.81 µM (inactive). COc1ccc(N2C(=O)C3c4[nH]c5ccc(C)cc5c4C4CCC(C(C)(C)C)CC4C3C2=O)cc1 (configuration not stated) was tested, and the GI50 was 20.7 µM (inactive). CC(=O)N[C@H]1CCCC[C@@H]1OC(C)=O was tested, and the GI50 was > 100 µM (inactive). With CC(=O)c1cccc(Nc2nc3ccccc3c3occc23)c1 the GI50 was 15.2 µM (inactive). For COc1c(-c2nc3ccc(N4CCN(C)CC4)cc3[nH]2)cc(OC)c2[nH]c(COC(C)=O)nc12, the GI50 was > 100 µM (inactive). With COc1ccc(C2=Nn3c(nnc3-c3ccccc3)S/C2=C\c2ccc(-c3ccc([N+](=O)[O-])cc3)o2)cc1 the GI50 was 26.2 µM (inactive). COC(=O)/C=C1/OC(c2ccccc2)=C(Cl)C1=O was tested, and the GI50 was 18.5 µM (inactive).
